Key:
[1] = test system: Plasmin/antiplasmin complexes; assay: Comparison Experiment 14b: stability of plasmin/antiplasmin complexes to chloramine T; assay type: biochemical; details: in the reaction mixture, 37° C., 30 min
Protocol: 30 pmol of alpha2 -antiplasmin and basic buffer A (control mixture) are incubated with 50 pmol of plasmin in 175 μl of basic buffer A for 5 min (37° C.). Addition of 500 μl of chloramine T of various concentrations in basic buffer A is followed by incubation for 30 min (37° C.), and the detection reaction is started by addition of 200 μl of 2.5 mM chromogenic plasmin substrate H-D-Phe-Tyr-Arg-ANBA in basic buffer A. After 3 min (37° C.), the reaction is stopped by addition of 100 μl of 8.5 M acetic acid, and the change in extinction at 405 nm is determined. No additional plasmin activity is generated even by chloramine T concentrations above 5 mM in the reaction mixture, that is to say plasmin/antiplasmin complexes are oxidation-resistant.

[2] = test system: antithrombin III (AT III); assay: Comparison Experiment 13: oxidative inactivation of antithrombin III; assay type: biochemical; details: 37° C., 15 min preincubation, pH 8.8
Protocol: 50 pmol of AT III in 50 μl of 50 mM Tris, 100 mM NaCl, 0.1% (w/v) Triton×100, pH 8.8 buffer, are preincubated with increasing quantities of chloramine T or hydrogen peroxide in 50 μl of distilled water at 37° C. for 15 min. Then 3 pmol of human alpha-thrombin, 2.5 IU of heparin and 2 KIU of aprotinin in 500 μl of 100 mM Tris, 150 mM NaCl, pH 8.2, are added, and the mixture is incubated at 37° C. for 5 min. Addition of 500 μl of 0.4 mM H-D-CHA-But-ArgpNA was followed by further incubation for 3 min (37° C.). The reaction was stopped by 100 μl of 8.5 M acetic acid, and the change in extinction at 405 nm was determined.

human alpha-thrombin = assay: Comparison Experiment 13: oxidation resistance of thrombin; assay type: biochemical; details: 500 nmol of chloramine T or 500 times the dose of H202
plasmin = assay: Comparison Experiment 11: effect of chloramine T and/or tranexamic acid on plasmin activity in the functional PAI assay; assay type: biochemical; details: for delta A/4 min: 405 nm
Protocol: (§1) Preincubation of 50 μl of sample with 200 μl of a variant of solution C (plasminogen activator dissolved in basic buffer U) at 37° C. for five minutes was followed by addition of 200 μl of a variant of plasminogen reagent (F), composed of 100 mM Tris-HCl pH 8.4, crosslinked polypeptides 1%, ^R Triton×100 0.1%, 100 mM NaCl without tran-examic acid, NaN3 0.01 % (basic buffer U) with 10 CTA-U/ml plasminogen and 200 μl of distilled water with 10 mM chloramine T, 3 mM tranexamic acid to the reaction mixture. The mixture was incubated at 37° C. for 5 min, and 500 μl of 0.6 mM chromogenic plasmin substrate HD-Nva-CHA-Lys-pNA in 480 mM NaCl (or, as a substitute, 200 mM CsCl) were added. The resultant linear change in extinction, delta A/min, at 405 nm was followed.

[3] = test system: plasminogen activator inhibitors; details: Lawrence and Loskutoff, Biochemistry 25, 6351-6355, 1986; cited from earlier work
urokinase = assay: Comparison Experiment 3: stability of urokinase against chloramine T in the pure buffer system; assay type: biochemical
Protocol: (§2) 50 μl of various samples, namely either basic buffer A (1) or PAI-deficient plasma (2) and PAI-rich plasma (3) 20 were incubated with 200 μl of solution C (plasminogen activator reagent) at 23° C. for 10 min. After addition of 500 μl of solution A (basic buffer), 50 μl of chloramine T of various concentrations, 300 μl of solution E (plasmin substrate reagent) and 100 μl of solution F (plasminogen reagent), the mixtures were incubated at 37° C. for 15 min. Substrate conversion was stopped by addition of 100 μl of 8.5 M acetic acid, and the extinction at 405 nm was determined. The oxidizing agent chloramine T used in this experiment was employed in solutions of the following concentrations.

PAI/u-PA complex = assay: Comparison Experiment 3: stability of the PAI/u-PA complex against chloramine T; assay type: biochemical
Protocol: as §2

u-PA/PAI complexes = assay: Comparison Experiments 5 and 7: stability of u-PA/PAI complexes in the functional PAI determination; assay type: biochemical; details: in the reaction mixture; Comparison Experiment 5
Protocol: as §1, with “followed. The values found for normal plasma were about 0.2/min.” for “followed.”
The chloramine T concentrations added in the determination method specified in Example 3 were varied from 0 to 9 mmol/1 of reaction mixture. The assayed samples were either a) deficient in functional PAI (=PAI-deficientplasma) or b) rich in functional PAI. An optimum of generated plasmin activity is found on addition of between 1 and 4 mmol/1 chloramine T. The two plasma plots are parallel throughout the range, i.e. u-PA/PAI complexes are stable up to at least 9 mM chloramine T in the reaction mixture (=650 1). […]

Compound: Cc1ccc(S(=O)(=O)NCl)cc1 [chloramine T, Chloramine T]
- chloramine T concentration generating no additional plasmin activity [1]: above 5 mM
- quantity of chloramine T inactivating 50 pmol of AT III [2]: 500 nmol
- activity of thrombin at the dose inactivating AT III (human alpha-thrombin): without the activity of thrombin being impaired
- increase in plasmin activity with alpha2-antiplasmin-deficient plasma compared with normal plasma (plasmin): 20%
- delta A/4 min (plasmin; Normal plasma without alpha2-antiplasmin): 271 mA
- delta A/4 min (plasmin; Normal plasma): 225 mA
- concentration inactivating plasminogen activator inhibitors [3]: about 10 μM
- chloramine T concentration attacking urokinase (urokinase): 1 mM
- chloramine T concentration at which the PAI/u-PA complex is stable (FIG. 3) (PAI/u-PA complex): above 2 mmol/1
- chloramine T concentration not resulting in cleavage of the PAI/u-PA complexes (PAI/u-PA complex; PAI-deficient vs PAI-rich plasma, in reaction mixture): above 2 mM
- chloramine T concentration up to which u-PA/PAI complexes are stable (u-PA/PAI complexes): at least 9 mM

Reference: patent US5057414A, “Method for the determination of the activity of serine proteases or serine protease inhibitors” (Behringwerke Aktiengesellschaft, priority 1987, dated 1991)
